pIC50: −log10 of the molar value. Square brackets hold non-standard residues; d marks the D form. Peptide text beside a SMILES is read from it. * marks the point of attachment. Biotin = O=C1N[C@H]2[C@H](CS[C@H]2CCCCC(=O)*)N1

For three compounds, IC50 results are on record in patent US5990276A, “Synthetic inhibitors of hepatitis C virus NS3 protease” (Schering Corporation, priority 1997, dated 1999).

The target of the assay is T1, HCV NS3 protease (Hepatitis C virus genotype 1a, UniProt P27958).
T1 construct: HT (hydrophilic solubilizing tail) (C); made in house; host or cells: E. coli M15 [pREP4]
T1 sequence (P27958 1028-1209): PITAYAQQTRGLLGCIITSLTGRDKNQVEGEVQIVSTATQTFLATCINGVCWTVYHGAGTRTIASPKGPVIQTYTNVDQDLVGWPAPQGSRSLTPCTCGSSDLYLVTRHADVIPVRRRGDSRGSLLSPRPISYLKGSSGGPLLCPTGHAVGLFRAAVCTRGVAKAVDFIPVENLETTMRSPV
Description: HPLC assay of inhibition of HCV NS3 protease cleavage of the 5A/5B substrate. The format is biochemical. As to conditions: Example 2; separate method not given; read-out: IC50, monovalent inhibitors of the HCV NS3 protease. As for the experimental part: Into an aqueous solution containing 25 mM TRIS, 50 mM NaCl, 0.5 mM EDTA, 10% glycerol and 0.1% NP40 was placed the potential inhibitor, the HCV NS3 protease at a concentration of 0.05 μM-[…], the HCV NS4A cofactor at a concentration of 0.05 μM-0.1 μM and the 5A/5B substrate at a concentration of 50 μM. This solution was then incubated for approximately 2 hours at 30° C. after which the solution was applied to an HPLC to determine if the 5A/5B remained intact and thus the compound was determined to be an inhibitor. […] The potential inhibitors were assayed at several different concentrations to determine the concentration which produced 50% inhibition of the HCV NS3 protease.
Consider `CC[C@@H](C)[C@@H](NC(=O)[C@H](NC(=O)[C@@H](CC(C)C)NC(=O)[C@@H](CO)NC(C)=O)C(C)C)C(=O)N[C@H](CCCNC(=N)N)C(=O)NCC(=O)N[C@@H](C(=O)N[C@@H](C(=O)N[C@@H](C(N)=O)C(C)C)[C@H](C)CC)C(C)C` [SEQ ID NO.: 12, Ser-Leu-Val-Ile-Arg-Gly-Val-Ile-Val], for which the negative logarithm of the IC50 (pIC50) is 6.22.

On to `CC[C@@H](C)[C@@H](NC(=O)[C@H](NC(=O)[C@@H](CC(C)C)NC(=O)[C@@H](CO)NC(=O)CNC(=O)[C@@H](CCCCN)NC(C)=O)C(C)C)C(=O)N[C@H](CCCNC(=N)N)C(=O)NCC(=O)N[C@@H](C(=O)N[C@@H](C(=O)N[C@@H](C(=O)N[C@@H](C(=O)N[C@H](CS)C(N)=O)C(C)C)C(C)C)[C@H](C)CC)C(C)C` [SEQ ID NO.: 13, Lys-Gly-Ser-Leu-Val-Ile-Arg-Gly-Val-Ile-Val-Val-Cys], for which the pIC50 was 5.70.

In the case of `CC[C@@H](C)[C@@H](NC(=O)[C@H](NC(=O)[C@@H](CC(C)C)NC(=O)[C@@H](CO)NC(=O)CNC(=O)[C@@H](CCCCN)NC(=O)CCCC[C@@H]1SC[C@@H]2NC(=O)N[C@@H]21)C(C)C)C(=O)N[C@H](CCCNC(=N)N)C(=O)NCC(=O)N[C@@H](C(=O)N[C@@H](C(=O)N[C@@H](C(=O)N[C@@H](C(=O)N[C@H](CS)C(=O)N[C@@H](CCCCN)C(=O)N[C@@H](CCCCN)C(=O)O)C(C)C)C(C)C)[C@H](C)CC)C(C)C` [SEQ ID NO.: 14, Xaa-Lys-Gly-Ser-Leu-Val-Ile-Arg-Gly-Val-Ile Val-Val-Cys-Lys-Lys] (Biotin-[dK]G[dS][dL][dV][dI][dR]G[dV][dI][dV][dV][dC]KK-OH), the pIC50 was 6.40.
